Counter-ions that a name gives are not always drawn.
How the values were obtained:
nNOS = nNOS (Homo sapiens, UniProt P29475); experiment: nNOS enzyme assay (hemoglobin capture assay); type: biochemical; conditions: for inhibition at 100 µM: read-out: Percent Inhibition of NOS, nNOS; for IC50: hemoglobin capture assay, initial velocity, read-out: IC50 of NOS, nNOS
Method: (§1) The generation of nitric oxide by NOS was measured using the hemoglobin capture assay (Proc. Natl. Acad. Sci., U.S.A. 1990, 87, 714). As assay mixture for nNOS contained […], 1.6 mM CaCl2, […] calmoduline, […], 6.5 mM BH4 and 3 mM oxyhemoglobin in 100 mM Hepes (pH 7.5). The reaction mixture for iNOS contained 10 mM of L-arginine, […], 6.5 mM BH4 and 3 mM oxyhemoglobin in 100 mM Hepes (pH 7.5). All assays were in a final volume of […] and were initiated with enzyme. Nitric oxide reacts with oxyhemoglobin to yield methehemoglobin which is detected at 401 nm (e=19,700 M^−1cm^−1) on a Perkin-Elmer Lamda 10 UV/vis spectrophotometer.
(§2) IC50 and percent inhibition of NOS by the compounds of the invention was determined under initial velocity measurement condition with hemoglobin capture assay as described above using varying concentrations of the compounds of the invention.

iNOS = iNOS (Homo sapiens, UniProt P35228); experiment: iNOS enzyme assay (hemoglobin capture assay); type: biochemical; conditions: for inhibition at 100 µM: read-out: Percent Inhibition of NOS, iNOS; for IC50: hemoglobin capture assay, initial velocity, read-out: IC50 of NOS, iNOS
Method: as §1, §2

| inhibition at 100 µM (nNOS) | inhibition at 100 µM (iNOS) | IC50 (nNOS) | IC50 (iNOS) | SMILES |
| --- | --- | --- | --- | --- |
| 25% | 14% |  |  | N=C(Nc1ccc2c(c1)C(=O)Nc1ccccc1O2)c1cccs1 [Example 18, N-(11-Oxo-10,11-dihydro-dibenzo[b,f][1,4]oxazepin-2-yl)-thiophene-2-carboxamidine hyrobromide] |
| 48% | 29% |  |  | N=C(Nc1ccc2c(c1)C(=O)Nc1ccccc1N2)SCc1ccccc1 [Example 13, 2-Benzyl-1-(11-oxo-10,11-dihydro-5H-dibenzo[b,e][1,4]diazepin-2-yl)-isothiourea] |
|  |  | 200 µM | 300 µM | CC(=N)Nc1ccc2c(c1)C(=O)Nc1ccccc1O2 [Example 14, N-(11-Oxo-10,11-dihydro-dibenzo[b,f][1,4]oxazepin-2-yl)-acetamidine] |
| 7% | 24% |  |  | O=C1Nc2ccccc2Oc2ccc(NC(=S)Nc3ccccc3)cc21 [Example 17, 1-(11-Oxo-10,11-dihydro-dibenzo[b,f][1,4]oxazegin-2-yl)-3-phenyl-thiourea] |
|  |  | 250 µM | 300 µM | NC(=S)Nc1ccc2c(c1)C(=O)Nc1ccccc1N2 [Example 9, (11-Oxo-10,11-dihydro-5H-dibenzo[b,e][1,4]diazepin-2-yl)-thiourea] |
|  |  | 200 µM | 500 µM | CC(=N)Nc1ccc2c(c1)C(=O)Nc1ccccc1N2 [Example 11, N-(11-Oxo-10,11-dihydro-5H-dibenzo[b,e][1,4]diazeoin-2-yl)-acetamidine hydrobromide] |
|  |  | 20 µM | 100 µM | CCSC(=N)Nc1ccc2c(c1)C(=O)Nc1ccccc1N2 [Example 10, 2-Ethyl-1-(11-oxo-10,11-dihydro-5H-dibenzo[b,e][1,4]diazepin-2-yl)-isothiourea] |
|  |  | 100 µM | 200 µM | O=C(NC(=S)Nc1ccc2c(c1)C(=O)Nc1ccccc1O2)c1ccccc1 [Example 15, 1-Benzoyl-3-(11-oxo-10,11-dihydro-dibenzo[b,f][1,4]oxazepin-2-yl)-thiourea] |
|  |  | 120 µM | 300 µM | O=C(NC(=S)Nc1ccc2c(c1)C(=O)Nc1ccccc1N2)c1ccccc1 [Example 8, 1-Benzoyl-3-(11-oxo-10,11-dihydro-5H-dibenzo[b,e][1,4]diazepin-2-yl)-thiourea] |
| 42% | 17% |  |  | N=C(Nc1ccc2c(c1)C(=O)Nc1ccccc1N2)c1cccs1 [Example 19, N-(11-Oxo-10,11-dihydro-5H-dibenzo[b,e][1,4]diazepin-2-yl)-thiophene-2-carboxamidine hydrobromide] |
|  |  | 400 µM | 500 µM | CC(=O)Nc1ccc2c(c1)C(=O)Nc1ccccc1N2 [Example 7, N-(11-Oxo-10,11-dihydro-5H-dibenzo[b,e][1,4]diazepin-2-yl)-acetamide] |
| 21% | 28% |  |  | N=C(Nc1ccc2c(c1)C(=O)Nc1ccccc1N2)SCc1ccc2ccccc2c1 [Example 12, 2-Naphthalen-2-ylmethyl-1-(11-oxo-10,11-dihydro-5H-dibenzo[b,e][1,4]diazepin-2-yl)-isothiourea] |
|  |  | 200 µM | 150 µM | NC(=S)Nc1ccc2c(c1)C(=O)Nc1ccccc1O2 [Example 16, (11-Oxo-10,11-dihydro-dibenzo[b,f][1,4]oxazepin-2-yl)-thiourea] |

Reference: patent publication US6919328B1, “Tricyclic compounds with NOS activity” (Neuraxon Inc., priority 2001, dated 2005)
